What all share (assay): ≥ marks a high value that may be exact or a test limit, other limits are often not marked, values filed in µg/mL are converted to µM
Assay [1] relates to Escherichia coli 44102.
For assay [2], the system named is Bacillus subtilis A47.
Assay [3] relates to Staphylococcus aureus 22401.
Assay [4] concerns Escherichia coli NCIMB 11843.
The subject of assay [5] is Cronobacter sakazakii DPC 6440.
Assay [6] relates to Pseudomonas fluorescens NCIMB 9046.
In assay [7] the test system is Cronobacter sakazakii DSM 4485.
The test system of assay [8] is Staphylococcus aureus RN4220.
Assay [9] has as its system Staphylococcus aureus SA113.
Assay [10] deals with Staphylococcus aureus Newman.
Assay [11] concerns Cronobacter muytjensii ATCC 51329.
Assay [12] deals with Staphylococcus aureus RF122.
Assay [13] deals with Staphylococcus aureus NCTC 8325-4.
Assay [14] has as its system Salmonella enterica subsp. enterica serovar Typhimurium LT2.
The test system of assay [15] is Cronobacter sakazakii ATCC BAA-894.
Assay [16] has as its system Klebsiella pneumoniae NCIMB 13218.
Assay [17] deals with Enterococcus faecalis 981.
Assay [18] relates to Enterococcus faecium 091299.
For assay [19], the system named is Psychrobacter faecalis X29.
The test system of assay [20] is Enterobacter cloacae CGMCC 1.57.
Assay [21] relates to Klebsiella pneumoniae 08040724.
The test system of assay [22] is Nocardia asteroides 201118.
In assay [23] the test system is Staphylococcus aureus ATCC 25923.
The subject of assay [24] is Staphylococcus epidermidis ATCC 35984.
Assay [25] has as its system Pseudomonas aeruginosa ATCC 27853.
Assay [26] deals with Staphylococcus aureus ATCC 33591.
Assay [27] deals with Candida glabrata 090902.
For assay [28], the system named is Staphylococcus aureus 90857.
The test system of assay [29] is Pectobacterium carotovorum subsp. carotovorum DSM 30168.
Assay [30] concerns Pseudomonas syringae pv. syringae DSM 10604.
For assay [31], the system named is Pseudomonas corrugata DSM 7228.
Assay [32] relates to Pseudomonas syringae pv. tomato DC3000.
For assay [33], the system named is Clavibacter michiganensis subsp. michiganensis DSM 46294.
Assay [34] concerns Xanthomonas vesicatoria DSM 50861.

Converted amounts (≈) assume the structure as drawn.

Take `CC(C)C[C@H](NC(=O)CNC(=O)[C@H](Cc1ccccc1)NC(=O)[C@H](CC(C)C)NC(=O)[C@H](CCCN=C(N)N)NC(=O)[C@H](CC(C)C)NC(=O)[C@H](Cc1c[nH]c2ccccc12)NC(=O)CNC(=O)[C@H](CO)NC(=O)[C@H](CCCN=C(N)N)NC(=O)[C@H](CCCN=C(N)N)NC(=O)[C@H](CCC(=O)O)NC(=O)[C@H](CC(C)C)NC(=O)[C@H](C)NC(=O)[C@@H](N)CC(C)C)C(=O)N[C@@H](CCCCN)C(=O)N1CCC[C@H]1C(=O)N[C@@H](CCCN=C(N)N)C(=O)N[C@@H](CCCN=C(N)N)C(=O)N[C@@H](CCCCN)C(=O)N[C@@H](Cc1cnc[nH]1)C(=O)O` [LALERRSGWLRLFGLKPRRKH]: the minimal inhibitory concentration (MIC) in assay [1] is ≥ 50 µM; in assay [2], ≥ 50 µM; in assay [3] it was 12.5 µM (≈ 32.4 µg/mL).

Regarding `CC[C@H](C)[C@H](N)C(=O)N[C@@H](CCCCN)C(=O)N[C@@H](Cc1cnc[nH]1)C(=O)N[C@@H](CCC(N)=O)C(=O)NCC(=O)N[C@@H](CC(C)C)C(=O)N1CCC[C@H]1C(=O)N[C@@H](CCC(N)=O)C(=O)N[C@@H](CCC(=O)O)C(=O)N[C@@H](CCC(=O)O)C(=O)O` [IKHQGLPQEE], the MIC in assay [4], in assay [5], in assay [6], in [7], in assay [8] and in assay [9] was ≥ 2500 µM each time. The MIC in [10], in assay [11], in assay [12], in [13], in assay [14] and in assay [15] was ≥ 2500 µM throughout. Besides, the MIC in assay [16] is ≥ 2500 µM.

As for `CC[C@H](C)[C@@H]1NC(=O)[C@H](CCCCN)NC(=O)[C@@H](NC(=O)[C@H](CCCCN)NC(=O)[C@H](CC(C)C)NC(=O)[C@H](CCCCN)NC(=O)[C@H](CC(=O)O)NC(=O)[C@H](CC(C)C)NC(=O)[C@H](CC(C)C)NC(=O)[C@@H](NC(=O)[C@@H](NC(=O)[C@H](C)NC(=O)[C@@H](NC(=O)[C@H](CC(N)=O)NC(=O)[C@H](CCCCN)NC(=O)[C@H](Cc2ccccc2)NC(=O)[C@@H](NC(=O)[C@H](CC(N)=O)NC(=O)[C@H](CCCCN)NC(=O)[C@H](C)NC(=O)[C@@H](NC(=O)[C@H](CC(=O)O)NC(=O)[C@H](CCSC)NC(=O)[C@H](Cc2ccccc2)NC(=O)CN)[C@@H](C)O)C(C)C)C(C)C)C(C)C)[C@@H](C)O)CSSC[C@@H](C(=O)O)NC(=O)CNC(=O)CNC(=O)[C@H](C)NC1=O` [GFMDTAKNVFKNVAVTLLDKLKCKIAGGC], the minimum inhibitory concentration (MIC) in [17] is ≥ 100 µM; in assay [18] it was 25 µM (≈ 77.1 µg/mL); in [19] it was 3.1 µM (≈ 9.56 µg/mL); in assay [20], ≥ 50 µM; in assay [21] it was ≥ 100 µM; in assay [22], 6.3 µM (≈ 19.4 µg/mL). This molecule came in with a minimum inhibitory concentration (MIC) in assay [23] of 50 µM (≈ 154 µg/mL).

As for `CC[C@H](C)[C@H](NC(=O)[C@H](CCCCN)NC(=O)[C@@H](NC(=O)[C@H](Cc1ccccc1)NC(=O)[C@H](C)NC(=O)[C@H](CCCCN)NC(=O)CNC(=O)[C@H](Cc1ccccc1)NC(=O)[C@H](CCCCN)NC(=O)[C@H](CCCCN)NC(=O)[C@H](C)NC(=O)[C@H](CCCCN)NC(=O)[C@H](CCCCN)NC(=O)[C@H](CC(C)C)NC(=O)[C@H](Cc1ccccc1)NC(=O)[C@H](CCCCN)NC(=O)CN)C(C)C)C(N)=O` [GKFLKKAKKFGKAFVKI], the MIC in [24] is 5.84 µM (≈ 11.3 µg/mL); in [25], 0.73 µM (≈ 1.41 µg/mL); in assay [26], ≥ 264 µM; in assay [23], 132 µM (≈ 256 µg/mL).

On to `CC[C@H](C)[C@H](NC(=O)[C@@H](NC(=O)[C@H](CCCCN)NC(=O)CNC(=O)[C@H](CC(C)C)NC(=O)[C@@H](NC(=O)[C@@H]1CCCN1C(=O)[C@H](CC(C)C)NC(=O)[C@@H](N)Cc1ccccc1)C(C)C)C(C)C)C(=O)N[C@@H](CCCCN)C(=O)N[C@@H](CC(C)C)C(=O)N[C@H](C(=O)NCC(=O)NCC(=O)N[C@@H](CC(C)C)C(=O)N[C@@H](CC(C)C)C(N)=O)C(C)C` [FLPVLGKVIKLVGGLL], for which the minimum inhibitory concentration (MIC) in assay [17] was 3.1 µM (≈ 5.16 µg/mL); in assay [19], ≥ 50 µM; in assay [27], ≥ 50 µM; in assay [22], 3.1 µM (≈ 5.16 µg/mL); in assay [23], 3.1 µM (≈ 5.16 µg/mL).

With `CC(C)C[C@H](NC(=O)[C@H](CC(C)C)NC(=O)[C@H](CC(N)=O)NC(=O)[C@H](CCC(=O)O)NC(=O)[C@H](CC(N)=O)NC(=O)[C@H](C)NC(=O)[C@@H](N)C(C)C)C(=O)N[C@@H](CCCN=C(N)N)C(=O)O` [VANENLLR], the minimum inhibitory concentration (MIC) is ≥ 2500 µM in [4]; ≥ 1250 µM in assay [5]; ≥ 2500 µM in assay [6]; ≥ 1250 µM in [7]; ≥ 2500 µM in assay [8]; ≥ 2500 µM in assay [9]. The MIC in assay [10] was ≥ 2500 µM; in assay [11], ≥ 1250 µM; in [12], ≥ 2500 µM; in [13], ≥ 1250 µM; in assay [14] it was ≥ 2500 µM; in assay [15] it was ≥ 2500 µM. Moreover, in [16], the minimal inhibitory concentration (MIC) was ≥ 2500 µM.

Consider `CC[C@H](C)[C@H](NC(=O)[C@H](CC(C)C)NC(=O)[C@H](CCCN=C(N)N)NC(=O)[C@H](CCCCN)NC(=O)[C@@H](NC(=O)[C@@H](NC(=O)[C@H](CCCCN)NC(=O)[C@@H](NC(=O)[C@H](CCCCN)NC(=O)[C@H](CCCCN)NC(=O)[C@H](CCCCN)NC(=O)[C@@H](N)CCCN=C(N)N)[C@@H](C)CC)[C@@H](C)CC)[C@@H](C)CC)C(N)=O` [RKKKIKIIKRLI], for which the minimal inhibitory concentration (MIC) in assay [28] was ≥ 62.5 µM; in assay [29], 6.51 µM (≈ 9.99 µg/mL); in assay [30], 0.163 µM (≈ 0.25 µg/mL); in assay [31], 1.63 µM (≈ 2.5 µg/mL); in assay [32], 6.51 µM (≈ 9.99 µg/mL); in assay [33], 3.25 µM (≈ 5 µg/mL). Also, the MIC in assay [34] was 1.63 µM (≈ 2.5 µg/mL).

Consider `CC[C@H](C)[C@H](NC(=O)[C@H](CC(C)C)NC(=O)[C@H](CCCCN)NC(=O)[C@@H](NC(=O)[C@@H](NC(=O)[C@H](CC(C)C)NC(=O)[C@H](CCCCN)NC(=O)[C@H](CC(C)C)NC(=O)[C@@H](NC(=O)[C@H](CCCCN)NC(=O)[C@@H](NC(=O)[C@H](CC(C)C)NC(=O)[C@H](CCCCN)NC(=O)[C@H](CCCN=C(N)N)NC(=O)[C@H](CCCN=C(N)N)NC(=O)[C@@H](N)CCCCN)[C@@H](C)CC)[C@@H](C)CC)[C@@H](C)CC)[C@@H](C)CC)C(=O)N[C@@H](CCCN=C(N)N)C(=O)N[C@@H](CCCCN)C(=O)N[C@@H](CCCCN)C(=O)N[C@@H](CCCN=C(N)N)C(N)=O` [KRRKLIKILKLIIKLIRKKR], for which the MIC in assay [28] is 2 µM (≈ 5.11 µg/mL); in assay [29], 3.91 µM (≈ 10 µg/mL); in assay [30], 0.391 µM (≈ 1 µg/mL); in [31] it was 0.977 µM (≈ 2.5 µg/mL); in assay [32], 0.977 µM (≈ 2.5 µg/mL); in [33], 0.0391 µM (≈ 0.1 µg/mL). This molecule also displayed a minimum inhibitory concentration (MIC) in [34] of 0.0391 µM (≈ 0.1 µg/mL).
